# How the values were obtained:
# [1] = system: dandelions; assay: Example 16 metal salts of EDTA, greenhouse dandelion mortality; type: in vivo, Taraxacum officinale; details: for Dead Dandelion (#/20): pH 7
# Experimental: This test investigated various metal chelates. All chelate solutions contained 0.4% metal ions with 10% excess chelator, and were adjusted to pH 7. For the combinations, these 4 solutions were mixed together in a 1:1 ratio. The solutions were sprayed onto greenhouse grown dandelions at a rate of 100 ml/m^2. The test was re-sprayed after 7 days.
# [2] = system: white clover; assay: Example 23 Cu-, Mn- or ZnHEDTA with Killex, white clover; type: in vivo
# Experimental: (§1) Plants were fertilized with an all purpose water-soluble fertilizer mix of 20-20-20 (N-P-K; Plant-Prod®) as needed. All broadleaf weeds were grown individually in a 2¼-inch pot until they were a suitable size for herbicide tests (actual weed size is reported in examples below). Perennial ryegrass was also grown in 2¼-inch pots, however many grass seeds were sown in the pot to simulate a small section of turf. Grass plants were continually trimmed to a height of 4 cm, simulating that of a homeowner's lawn. For field tests, plots ¼ m^2 in size were marked out in areas containing the targeted broadleaf weed species growing in turf grass. Plots were continually mowed to simulate a homeowner's lawn. […] In all of the examples, the amounts of the various herbicide components are identified as a percent on a weight basis.
# (§2) Killex® (Scotts Canada, Ltd., Ontario, Canada) is a commonly used selective lawn herbicide and was used as the commercial herbicide for herbicide combinations. The labeled dilution and application rates for Killex® are 6 ml into 1 L of solution (0.6%) applied at 200 ml/m^2.
# (§3) All visual plant damage assessments were made using a quantitative rating scale; percent control relative to the untreated check (0=no effect; 100=plant death).
# (§4) Materials and Methods: This trial was conducted in the greenhouse. Ten white clover plants and 10 pots of perennial ryegrass were selected for each treatment. Herbicide solutions were prepared using deionized water. The treatments were applied using a hand-trigger sprayer at 200 ml/m^2. All treatments were applied once. Phytotoxicity (%) was assessed 4 and 7 days after treatment (A4 and A7).
# [3] = system: perennial ryegrass; assay: Example 23 Cu-, Mn- or ZnHEDTA with Killex, perennial ryegrass; type: in vivo
# Experimental: as §1, §2, §3, §4
# [4] = system: white clover; assay: Example 17 iron chelates with Killex, white clover; type: in vivo
# Experimental: as §1, §2, §3
# (§5) Materials and Methods: This trial was conducted in the greenhouse. Nine pots of white clover and 10 pots of perennial ryegrass were selected for each treatment. Herbicidal solutions were prepared using deionized water. The treatments were applied using a handheld trigger sprayer at 200 ml/m^2. All treatments were applied once. Phytotoxicity (%) was assessed 4, 7, and 14 days after application (A4, A7, and A14).
# [5] = system: perennial ryegrass; assay: Example 17 iron chelates with Killex, perennial ryegrass; type: in vivo
# Experimental: as §1, §2, §3, §5
# [6] = system: dandelion; assay: Example 14 field dandelion test of iron chelates and 50:50 mixtures; type: in vivo, Taraxacum officinale; parameters: Surviving Dandelions (%): concentration or dose not given beside the values
# From the text: Solutions were made of FeHEDTA (0.2% Fe), FeEDTA (0.2% Fe), FeEDDS (0.4% Fe), and FeMGDA (0.4% Fe). For the combinations, these 4 solutions were mixed together in a 1:1 ratio. The plots (0.25 m^2) were sprayed 3 times at weekly intervals at a rate of 0.1 L/m^2. The plots contained a mixture of dandelion and hard fescue turfgrass.
# [7] = system: dandelion; assay: Example 21 Fe chelates with Killex, dandelion; type: in vivo, Taraxacum officinale; details: A29 = 29 days after treatment
# Experimental: as §1, §2, §3
# (§6) Materials and Methods: This trial was conducted in the greenhouse. […] Phytotoxicity (%) was assessed 29 days after treatment (A29).
# [8] = system: perennial ryegrass; assay: Example 21 Fe chelates with Killex, perennial ryegrass; type: in vivo; details: A29 = 29 days after treatment
# Experimental: as §1, §2, §3, §6
# [9] = system: dandelions; assay: Example 7 potassium nonanoate with FeHEDTA, greenhouse dandelions; type: in vivo, Taraxacum officinale
# Experimental: (§7) The following non-limiting examples serve to further describe the invention. Unless otherwise specified, all of the iron solutions were made using the same molar concentration of iron ion as chelating agent. All of the outside tests were done on areas of mixed grass and dandelions that were at least 2 months old. For the greenhouse tests, dandelions were grown in a commercial greenhouse mix, using supplemental lighting and heating. Each plant was grown in a 2¼ inch pot to a minimum diameter of 20 cm. All of the solutions were sprayed onto the plants at a rate of 100 ml/m^2. The ferrous sulfate formulations that were used in examples 1, 2, 8 and 9 contained 1% iron (180 mM), 18 mM EDTA, 1% citric acid and 0.5% urea. In all of the examples, the amount of iron is identified in brackets as the percent iron on a weight basis.
# (§8) All plant damage was assessed using a qualitative rating scale from 0 to 9.
# This test compared the damaged caused by combinations of fatty acid and FeHEDTA. FeHEDTA was used at a concentration to 35.8 mM. The treatment with 0.1% Fe contained twice the molar amount of chelating agent as iron. The treatment with 0.2% iron contained the same molar amount of chelating agent as iron Potassium nonanoate (KC9) was used at 0.84%. The plants were re-sprayed 8 days after the first spray.
# [10] = system: grass; assay: Example 1 field test of iron chelates, grass damage; type: in vivo; details: field, sprayed once at 100 ml/m^2, 5 days after spraying
# Experimental: as §7, §8
# (§9) All of the iron chelates were sprayed once at 0.2% Fe^+3 (35.8 mM), at a volume of 100 ml/m^2 onto 0.5 m^2 areas of mixed grass and dandelions. The spraying of the test was followed by 2 days of rain-free weather. Observations were made 5 days after spraying.
# [11] = system: dandelions; assay: Example 1 field test of iron chelates, dandelion damage; type: in vivo, Taraxacum officinale; details: sprayed once at 100 ml/m^2, 5 days after spraying
# Experimental: as §7, §8, §9
# [12] = day 10 (re-sprayed after 7 days)
# [13] = A4 = 4 days after application, 0=no effect, 100=plant death
# [14] = A14 = 14 days after application
# [15] = day 6, sprayed 3 times at weekly intervals
molecule,measurement,setting,value
O=C([O-])CN(CCN(CC(=O)[O-])CC(=O)O)CC(=O)[O-].[Al+3] [Al EDTA (0.4% Al)],Dead Dandelion (#/20),[1]; day 7,0 #/20
same,Dead Dandelion (#/20),[1]; [12],0 #/20
O=C([O-])CN(CCN(CC(=O)O)CC(=O)O)CC(=O)[O-].[Cu+2] [Cu EDTA (0.4% Cu)],Dead Dandelion (#/20),[1]; day 7,0 #/20
same,Dead Dandelion (#/20),[1]; [12],4 #/20
O=C([O-])CN(CCO)CCN(CC(=O)[O-])CC(=O)[O-].[Cu+2] [CuHEDTA 0.4% Cu],Phytotoxicity (%) against white clover,[2]; A4,32%
same,Phytotoxicity (%) against white clover,[2]; A7,62%
same,Phytotoxicity (%) on perennial ryegrass,[3]; A4,3%
same,Phytotoxicity (%) on perennial ryegrass,[3]; A7,3%
"[Cl][Fe]([Cl])[Cl] [FeCl3 (0.4% Fe), ferric chloride]",Dead Dandelion (#/20),[1]; day 7,0 #/20
same,Dead Dandelion (#/20),[1]; [12],0 #/20
CC(C(=O)[O-])N(CC(=O)[O-])CC(=O)[O-].[Fe+3] (stereo not shown) [FeMGDA],Phytotoxicity (%) against white clover,[4]; [13],4%
same,Phytotoxicity (%) against white clover,[4]; A7 = 7 days after application,5%
same,Phytotoxicity (%) against white clover,[4]; [14],2%
same,Phytotoxicity (%) against perennial ryegrass,[5]; A4,0%
same,Phytotoxicity (%) against perennial ryegrass,[5]; A7,0%
same,Phytotoxicity (%) against perennial ryegrass,[5]; A14,0%
same,Area Covered by Dandelion (%),[6]; day 0,30%
same,Dandelion Count (#/0.25 m^2),[6]; day 0,72 #/0.25 m^2
same,Dandelion Count (#/0.25 m^2),[6]; day 6,71 #/0.25 m^2
same,Surviving Dandelions (%),[6]; day 6,99%
same,Area Covered by Dandelion (%),[6]; [15],17%
same,Dandelion Necrosis (%),[6]; day 11,85%
same,Dandelion Count (#/0.25 m^2),[6]; day 13,43 #/0.25 m^2
same,Surviving Dandelions (%),[6]; day 13,60%
same,Area Covered by Dandelion (%),[6]; day 15,12%
same,Dandelion Necrosis (%),[6]; day 18,99%
same,Area Covered by Dandelion (%),[6]; day 21,2%
same,Dandelion Count (#/0.25 m^2),[6]; day 21,19 #/0.25 m^2
same,Surviving Dandelions (%),[6]; day 21,26%
same,Dandelion Necrosis (%),[6]; day 33,80%
same,Phytotoxicity (%) against dandelion,[7],12%
same,Phytotoxicity (%) on perennial ryegrass,[8],0%
"CCCCCCCCC(=O)[O-].[K+] [KC9, Potassium nonanoate]",Dead Plants (#/10),[9]; 8 + 5 days after spraying,0 #/10
same,Plant Damage (0 to 9),[9]; 8 + 5 days after spraying (re-sprayed after 8 days),0.6 0 to 9
same,Plant Damage (0 to 9),[9]; 7 days after spraying,0.0 0 to 9
O=C([O-])CN(CCO)CCN(CC(=O)[O-])CC(=O)[O-].[Mn+2] [MnHEDTA 0.4% Mn],Phytotoxicity (%) against white clover,[2]; A4,9%
same,Phytotoxicity (%) against white clover,[2]; A7,12%
same,Phytotoxicity (%) on perennial ryegrass,[3]; A4,1%
same,Phytotoxicity (%) on perennial ryegrass,[3]; A7,1%
O=C([O-])CN(CCN(CC(=O)O)CC(=O)O)CC(=O)[O-].[Zn+2] [Zn EDTA (0.4% Zn)],Dead Dandelion (#/20),[1]; day 7,0 #/20
same,Dead Dandelion (#/20),[1]; [12],0 #/20
O=C([O-])CN(CCN(CCO)CC(=O)O)CC(=O)[O-].[Zn+2] [ZnHEDTA 0.4% Zn],Phytotoxicity (%) against white clover,[2]; A4,4%
same,Phytotoxicity (%) against white clover,[2]; A7,3%
same,Phytotoxicity (%) on perennial ryegrass,[3]; A4,1%
same,Phytotoxicity (%) on perennial ryegrass,[3]; A7,0%
FeEDTA,Phytotoxicity (%) against white clover,[4]; [13],15%
same,Phytotoxicity (%) against white clover,[4]; A7 = 7 days after application,15%
same,Phytotoxicity (%) against white clover,[4]; [14],6%
same,Grass Damage (0 to 9),[10],1
same,Dandelion Damage (0 to 9),[11],8.3 0 to 9
same,Phytotoxicity (%) against perennial ryegrass,[5]; A4,4%
same,Phytotoxicity (%) against perennial ryegrass,[5]; A7,2%
same,Phytotoxicity (%) against perennial ryegrass,[5]; A14,0%
same,"herbicidal comparison of metal EDTA chelates, in words","[1]; Example 16, text","better herbicide than Al EDTA, Cu EDTA and ZnEDTA"
same,Dead Dandelion (#/20),[1]; day 7,10 #/20
same,Dead Dandelion (#/20),[1]; [12],17 #/20
same,Area Covered by Dandelion (%),[6]; day 0,30%
same,Dandelion Count (#/0.25 m^2),[6]; day 0,56 #/0.25 m^2
same,Dandelion Count (#/0.25 m^2),[6]; day 6,33 #/0.25 m^2
same,Surviving Dandelions (%),[6]; day 6,59%
same,Area Covered by Dandelion (%),[6]; [15],10%
same,Dandelion Necrosis (%),[6]; day 11,90%
same,Dandelion Count (#/0.25 m^2),[6]; day 13,20 #/0.25 m^2
same,Surviving Dandelions (%),[6]; day 13,36%
same,Area Covered by Dandelion (%),[6]; day 15,7%
same,Dandelion Necrosis (%),[6]; day 18,98%
same,Area Covered by Dandelion (%),[6]; day 21,1%
same,Dandelion Count (#/0.25 m^2),[6]; day 21,19 #/0.25 m^2
same,Surviving Dandelions (%),[6]; day 21,34%
same,Dandelion Necrosis (%),[6]; day 33,90%
